Measured values from patent US20090029992A1, “SUBSTITUTED PYRAZOLE COMPOUNDS” (priority 2007, published 2009).

Columns and labels:
[1] = biological target: T1, N-terminal His-tagged human Src (Homo sapiens, UniProt P12931); assay: Src kinase inhibition assay (33P-ATP filter assay); type: biochemical
T1 construct: His (N); purchased Upstate USA Inc, 706 Forest Street, Charlottesville, Va
Procedure: Compounds were assayed for Src kinase inhibitory activity using N-terminal His-tagged human Src (Upstate USA Inc, 706 Forest Street, Charlottesville, Va.). Serial dilutions of compound were assayed in a final reaction volume of 25 μL by incubating a solution of the above Src kinase (5-10 mU), 8 mM MOPS (3-(N-morpholino) propanesulfonic acid) pH 7.0, 0.2 mM EDTA (ethylenediamine tetracetic acid), 250 μM amino acid sequence KVEKIGEGTYGVVYK (Upstate USA Inc, 706 Forest Street, Charlottesville, Va.), and 10 mM magnesium acetate and [γ-^33P-ATP] (specific activity of about 500 cpm/μmol, concentration as required). The reaction was initiated by the addition of the magnesium acetate and [γ-^33P-ATP] mixture. After incubation for 40 minutes at room temperature, the reaction was stopped by the addition of 5 μL of a 3% phosphoric acid solution. A 10 μL aliquote of the reaction was then spotted onto a P30 filtermat (PerkinElmer, Wellesley, Mass.) and washed three times for five minutes in 75 mM phosphoric acid and once in methanol prior to drying and scintillation counting. Inhibition of Src activity was determined by comparison to assays that contained no inhibitor.

[2] = biological target: T2, N-terminal GST-tagged recombinant human Flt3, residues 564-end (Homo sapiens, UniProt P36888); assay: Flt3 kinase inhibition assay (33P-ATP filter assay); type: biochemical; conditions: 40 minutes at room temperature
T2 construct: recombinant human Flt3, residues 564-end; GST (N); purchased Upstate USA Inc, 706 Forest Street, Charlottesville, Va
T2 sequence (P36888 564-993 limits assumed): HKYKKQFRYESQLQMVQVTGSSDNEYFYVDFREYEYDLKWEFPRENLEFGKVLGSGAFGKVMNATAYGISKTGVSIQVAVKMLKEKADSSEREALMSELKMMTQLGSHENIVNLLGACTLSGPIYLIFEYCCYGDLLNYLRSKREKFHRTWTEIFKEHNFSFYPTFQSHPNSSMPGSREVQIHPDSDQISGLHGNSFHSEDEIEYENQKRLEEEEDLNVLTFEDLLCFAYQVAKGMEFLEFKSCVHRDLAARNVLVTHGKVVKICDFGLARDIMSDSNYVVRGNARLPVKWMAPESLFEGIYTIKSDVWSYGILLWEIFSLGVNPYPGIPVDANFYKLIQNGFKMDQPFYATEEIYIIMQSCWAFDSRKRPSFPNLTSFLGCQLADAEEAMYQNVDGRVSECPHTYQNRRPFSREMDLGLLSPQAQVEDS
Procedure: (§1) Compounds were assayed for Flt3 kinase inhibitory activity using N-terminal GST-tagged recombinant human Flt3, residues 564-end (Upstate USA Inc, 706 Forest Street, Charlottesville, Va.). Serial dilutions of compound were assayed in a final reaction volume of 25 μL by incubating a solution of the above Flt3 kinase (5-10 mU), 8 mM MOPS (3-(N-morpholino) propanesulfonic acid) pH 7.0, 0.2 mM EDTA (ethylenediamine tetracetic acid), 50 μM amino acid sequence EAIYAAPFAKKK (Upstate USA Inc, 706 Forest Street, Charlottesville, Va.), and 10 mM magnesium acetate and [γ-^33P-ATP] (specific activity of about 500 cpm/μmol, concentration as required). The reaction was initiated by the addition of the magnesium acetate and [γ-^33P-ATP] mixture. After incubation for 40 minutes at room temperature, the reaction was stopped by the addition of 5 μL of a 3% phosphoric acid solution. A 10 μL aliquote of the reaction was then spotted onto a P30 filtermat (PerkinElmer, Wellesley, Mass.) and washed three times for five minutes in 75 mM phosphoric acid and once in methanol prior to drying and scintillation counting. Inhibition of Flt3 activity was determined by comparison to assays that contained no inhibitor.

[3] = biological target: T3, N-terminal His6-tagged recombinant human KDR, residues 790-end (Homo sapiens, UniProt P35968); assay: KDR kinase inhibition assay (33P-ATP filter assay); type: biochemical
T3 construct: recombinant human KDR, residues 790-end; His6 (N); purchased Upstate USA Inc, 706 Forest Street, Charlottesville, Va
T3 sequence (P35968 790-1356 limits assumed): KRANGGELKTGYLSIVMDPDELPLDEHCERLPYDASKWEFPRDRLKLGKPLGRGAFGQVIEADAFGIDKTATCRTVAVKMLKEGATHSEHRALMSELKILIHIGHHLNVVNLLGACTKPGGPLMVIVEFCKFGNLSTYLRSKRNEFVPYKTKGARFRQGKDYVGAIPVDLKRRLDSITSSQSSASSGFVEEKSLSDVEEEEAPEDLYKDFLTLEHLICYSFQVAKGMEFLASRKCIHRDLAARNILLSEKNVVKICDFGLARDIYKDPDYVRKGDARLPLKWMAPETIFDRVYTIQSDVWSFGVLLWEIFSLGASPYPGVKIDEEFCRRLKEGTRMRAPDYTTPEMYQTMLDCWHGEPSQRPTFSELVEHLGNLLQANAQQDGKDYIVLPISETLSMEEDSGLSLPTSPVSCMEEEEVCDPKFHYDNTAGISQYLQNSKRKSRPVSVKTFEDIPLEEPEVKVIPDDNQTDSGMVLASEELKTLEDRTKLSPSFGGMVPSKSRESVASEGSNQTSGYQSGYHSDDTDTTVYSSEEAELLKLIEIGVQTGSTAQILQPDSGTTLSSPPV
Procedure: as §1, with “KDR” for “Flt3”, “His6-tagged” for “GST-tagged”, “KDR,” for “Flt3,”, “790-end” for “564-end”, “0.33 mg/mL myelin basic protein” for “50 μM amino acid sequence EAIYAAPFAKKK”

HCT116 cells = assay: Whole cell cytotoxicity assay, Sulforhodamine B; type: cell-based; conditions: Homo sapiens, HCT-116, HCT116, 96 hours incubation, SRB; for IC50: read-out: IC50 values in this assay (HCT116 cell growth); for GI50: read-out: GI50 HCT116 cell growth
Procedure: Human tumor-derived cell lines, HCT116 or MCF7 (ATCC) were plated in a 96 well plate in DMEM containing 10% fetal bovine serum and 2 mM L-glutamine at a density of 500 HCT116 cells or 1,000 MCF7 cells per well and incubated at 37° C., 5% CO2, for 24 hours prior to the addition of experimental compounds. Compounds were added using the dilution series indicated to duplicate plates and the cells were incubated in media plus compound for 96 hours. An additional plate was fixed in 10% TCA at the time of the addition of compound to provide a measurement of the cell population at time zero, the time of drug addition. Following the 96 hour incubation, cells were fixed in situ by gently aspirating off the culture media and then adding 50 ul of ice cold 10% TCA per well and incubation at 4° C. for 60 minutes. The plates were washed with tap water five times and allowed to air dry for 5 minute. 50 ul of a 0.4% (w/v) Sulforhodamine B solution in 1% (v/v) acetic acid was added per well and the cells were incubated for 30 minutes at room temperature. Following staining, plates were washed four times with 1% acetic acid to remove any unbound dye and then allowed to air dry for 5 minutes. The stain was solubilized with 100 ul of 10 mM Tris pH 10.5 per well and placed on an orbital rotator for 5 minutes. The absorbance was read at 570 nm. Percentage growth was calculated using the absorbance readings from the time zero plate (Tz) and the dilution series plate […] which included a column of cells grown in media without compound as a control (C) using the formulas:
[(Ti−Tz)/(C−Tz)]×100 for concentrations for which Ti>/=Tz
[(Ti−Tz)/Tz]×100 for concentrations for which Ti<Tz.
Three dose response parameters were calculated for each experimental agent. Growth inhibition of 50% (GI50) was calculated from [(Ti−Tz)/(C−Tz)]×100=50, which was the drug concentration resulting in a 50% reduction in the net protein increase (as measured by SRB staining) in control cells during the drug incubation. The drug concentration resulting in total growth inhibition (TGI) was calculated from Ti=Tz. The LC50 (concentration of drug resulting in a 50% reduction in the measured protein at the end of the drug treatment as compared to that at the beginning) indicating a net loss of cells following treatment ws calculated from [(Ti−Tz)/Tz]×100=−50. Values are calculated for each of these three parameters if the level of activity was reached; however, if the effect was not reached or was exceeded, the value for that parameter is expressed as greater or less than the maximum or minimum concentration tested.

[4] = group with IC50 greater than 100 nM

T1 sequence (P12931 whole entry): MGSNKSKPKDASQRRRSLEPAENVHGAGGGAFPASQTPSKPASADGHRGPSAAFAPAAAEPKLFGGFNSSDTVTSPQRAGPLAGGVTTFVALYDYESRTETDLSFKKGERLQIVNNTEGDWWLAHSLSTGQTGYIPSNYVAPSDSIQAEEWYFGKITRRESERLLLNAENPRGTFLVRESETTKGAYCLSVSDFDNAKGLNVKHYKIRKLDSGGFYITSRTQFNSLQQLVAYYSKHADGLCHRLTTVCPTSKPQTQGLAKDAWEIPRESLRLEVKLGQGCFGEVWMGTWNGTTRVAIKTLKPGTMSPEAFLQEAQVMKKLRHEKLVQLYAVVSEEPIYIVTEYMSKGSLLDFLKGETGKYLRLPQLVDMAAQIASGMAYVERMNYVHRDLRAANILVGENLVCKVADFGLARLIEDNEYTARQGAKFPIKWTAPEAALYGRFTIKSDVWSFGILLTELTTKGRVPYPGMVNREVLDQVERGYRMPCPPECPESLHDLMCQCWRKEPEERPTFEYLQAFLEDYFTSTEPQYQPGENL

Cc1cc(Nc2cc(N(C)CCN(C)C)nc(-c3ccccc3C(F)(F)F)n2)n[nH]1 [Compound 114, N^4-(2-(dimethylamino)ethyl)-N^4-methyl-N^6-(5-methyl-1H-pyrazol-3-yl)-2-(2-(trifluoromethyl)phenyl)pyrimidine-4,6-diamine]
IC50 [1, 4]: ≤ 1 µM | IC50 [2]: ≤ 0.1 µM | IC50 ([3]; 40 minutes at room temperature): ≤ 0.1 µM | IC50 (HCT116 cells): 1 to 10 µM

CCc1ccccc1-c1nc(Nc2cc(C)[nH]n2)cc(N(C)CCN(C)C)n1 [Example 186, N^4-(2-(dimethylamino)ethyl)-2-(2-ethylphenyl)-N^4-methyl-N^6-(5-methyl-1H-pyrazol-3-yl)pyrimidine-4,6-diamine]
IC50 [1, 4]: ≤ 1 µM | IC50 [2]: ≤ 0.1 µM | IC50 [3, 4]: ≤ 1 µM | IC50 (HCT116 cells): 1 to 10 µM

Cc1cc(Nc2cc(N(C)CCN(C)C)nc(-c3cccc4ccccc34)n2)n[nH]1 [Example 141, N^4-(2-(dimethylamino)ethyl)-N^4-methyl-N^6-(5-methyl-1H-pyrazol-3-yl)-2-(naphthalen-1-yl)pyrimidine-4,6-diamine]
IC50 [1, 4]: ≤ 1 µM | IC50 [2]: ≤ 0.1 µM | IC50 [3, 4]: ≤ 1 µM | GI50 (HCT116 cells): ≤ 1 µM

Cc1cc(Nc2cc(N(C)CCN(C)C)nc(-c3cccc(C)c3C)n2)n[nH]1 [Example 182, N^4-(2-(dimethylamino)ethyl)-2-(2,3-dimethylphenyl)-N^4-methyl-N^6-(5-methyl-1H-pyrazol-3-yl)pyrimidine-4,6-diamine]
IC50 [1, 4]: ≤ 1 µM | IC50 [2]: ≤ 0.1 µM | IC50 [3, 4]: ≤ 1 µM | IC50 (HCT116 cells): 1 to 10 µM

Cc1cc(Nc2cc(N(C)CCN(C)C)nc(-c3ccccc3Cl)n2)n[nH]1 [Compound 50, 2-(2-chlorophenyl)-N4-(2-(dimethylamino)ethyl)-N4-methyl-N6-(5-methyl-1H-pyrazol-3-yl)pyrimidine-4,6-diamine]
IC50 ([1]; 40 minutes at room temperature): ≤ 0.1 µM | IC50 [1, 4]: ≤ 1 µM | IC50 [2]: ≤ 0.1 µM | IC50 ([3]; 40 minutes at room temperature): ≤ 0.1 µM | GI50 (HCT116 cells): ≤ 1 µM | IC50 (HCT116 cells): 1 to 10 µM

Cc1cc(Nc2cc(N3CCN(C)CC3)nc(-c3ccc(F)cc3F)n2)n[nH]1 [Example 189, 2-(2,4-difluorophenyl)-N-(5-methyl-1H-pyrazol-3-yl)-6-(4-methylpiperazin-1-yl)pyrimidin-4-amine]
IC50 [1, 4]: ≤ 1 µM | IC50 [2]: ≤ 0.1 µM | IC50 [3, 4]: ≤ 1 µM | IC50 (HCT116 cells): 1 to 10 µM

COc1ccccc1-c1nc(Nc2cc(C)[nH]n2)cc(N2CCN(C)CC2)n1 [Compound 43, 2-(2-methoxyphenyl)-N-(5-methyl-1H-pyrazol-3-yl)-6-(4-methylpiperazin-1-yl)pyrimidin-4-amine]
IC50 [1, 4]: ≤ 1 µM | IC50 [2]: ≤ 0.1 µM | IC50 [3, 4]: ≤ 1 µM | IC50 (HCT116 cells): 1 to 10 µM

Cc1cc(Nc2cc(NC3CCOCC3)nc(-c3ccc4ccccc4c3)n2)n[nH]1 [Example 128, N^4-(5-methyl-1H-pyrazol-3-yl)-2-(naphthalen-2-yl)-N^6-(tetrahydro-2H-pyran-4-yl)pyrimidine-4,6-diamine]
IC50 ([1]; 40 minutes at room temperature): ≤ 0.1 µM | IC50 [2]: ≤ 0.1 µM | IC50 ([3]; 40 minutes at room temperature): ≤ 0.1 µM | IC50 (HCT116 cells): 1 to 10 µM
